Experimental data reported in patent publication US9962405B2, “Antiviral gel combination” (YEDITEPE UNIVERSITESI, priority 2013, dated 2018).

Key:
[1] = tested on: Herpes Simplex Type 1 virus; assay: Antiviral activity on HSV type 1 in Vero cells, cell viability by MTS, viral inhibition calculated; format: cell-based; conditions: tested at 0.0005, 0.001 and 0.002%, HSV-1 dilutions 10^-2 to 10^-5
Experimental: Vero cells and Herpes Simplex Type 1 virus were used in order to observe the activity of the antiviral gel formulation; which is composed of a mixture of sodium pentaborate pentahydrate chlorhexidine and poloxamer; on Herpes Simplex Type 1 virus. Virus stock dilutions were prepared and used for the analysis. Five different concentrations were prepared from the main stock up to 10^−5 concentration and among these concentrations, the dilution of 10^−1 concentration was cancelled since no viable cell was observed. The other antiviral analyses were made at four different concentration values ranging from 10^−2 to 10^−5. Chlorhexidine was applied at three different concentrations: 0.0005-0.001-0.002%.

[2] = tested on: Vero cells; conditions: chlorhexidine at 0.002%; known from reference [12]; cited from earlier work
[3] = tested on: HSV-1 virus; conditions: in vitro, vero cells; cited from earlier work
[4] = tested on: Herpes simplex virus; conditions: topically applied on infected skin, animal studies; cited from earlier work

## [H]/N=C(\N/C(=N/[H])NCCCCCCNC(=N)NC(=N)Nc1ccc(Cl)cc1)Nc1ccc(Cl)cc1 [chlorhexidine]
[1]
  concentration of chlorhexidine alone at which the best antiviral activity was observed: 0.002%
[2]
  cytotoxic effect: cytotoxic effect
[3]
  inhibition of viral replication of HSV-1: inhibits viral replication
[4]
  inhibition of virus proliferation and lesion formation: inhibits the virus from proliferating and forming lesions
